Data taken from BindingDB's records for doi:10.1021/jm030354b (Millennium Pharmaceuticals, 2004).

Legend:
[1] = Inhibition of citreated human (h-PRP) platelet aggregation induced by 5 uM TRAP6
[2] = Inhibition of human platelet (h-PRP) aggregation induced by 5 uM TRAP6 with PPACK
[3] = biological target: T1, Integrin alpha-IIb/beta-3 (Homo sapiens, UniProt P08514+P05106); assay: Inhibition of human platelet (h-PRP) aggregation induced by 20 uM ADP with PPACK
[4] = biological target: T1, Integrin alpha-IIb/beta-3; assay: Inhibition of platelet aggregation induced by 20 uM adenosine 5-diphosphate (ADP) in citreated human platelet rich plasma (h-PRP)
[5] = Inhibition of citreated human platelet (h-PRP) aggregation induced by 4 ug/mL collagen
[6] = Inhibition of human platelet (h-PRP) aggregation induced by 4 ug/mL collagen with PPACK
[7] = Inhibition of human platelet (h-PRP) aggregation induced by 20 uM ADP with PPACK

T1 sequence (P05106 27-788 limits assumed): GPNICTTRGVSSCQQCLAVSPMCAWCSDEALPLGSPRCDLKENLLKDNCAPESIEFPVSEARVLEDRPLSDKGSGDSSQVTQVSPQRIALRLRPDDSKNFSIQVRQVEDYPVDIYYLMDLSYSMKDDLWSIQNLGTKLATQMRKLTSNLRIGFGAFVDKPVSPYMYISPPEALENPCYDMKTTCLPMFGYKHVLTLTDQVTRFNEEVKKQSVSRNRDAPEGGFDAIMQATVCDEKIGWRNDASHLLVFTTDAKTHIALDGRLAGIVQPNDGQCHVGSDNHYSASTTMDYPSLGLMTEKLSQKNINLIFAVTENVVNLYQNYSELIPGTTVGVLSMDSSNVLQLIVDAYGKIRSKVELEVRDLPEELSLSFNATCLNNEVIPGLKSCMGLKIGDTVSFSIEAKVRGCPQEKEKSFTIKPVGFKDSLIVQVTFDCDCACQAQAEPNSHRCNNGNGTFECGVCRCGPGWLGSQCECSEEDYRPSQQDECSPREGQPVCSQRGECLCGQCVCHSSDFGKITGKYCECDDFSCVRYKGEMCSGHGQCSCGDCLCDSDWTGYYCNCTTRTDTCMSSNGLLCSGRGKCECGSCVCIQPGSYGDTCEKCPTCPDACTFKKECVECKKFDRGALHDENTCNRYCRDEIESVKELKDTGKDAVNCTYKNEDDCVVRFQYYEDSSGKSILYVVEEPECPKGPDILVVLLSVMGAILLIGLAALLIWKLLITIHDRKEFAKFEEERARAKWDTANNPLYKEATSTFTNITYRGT
T1 sequence (P08514 32-887 limits assumed): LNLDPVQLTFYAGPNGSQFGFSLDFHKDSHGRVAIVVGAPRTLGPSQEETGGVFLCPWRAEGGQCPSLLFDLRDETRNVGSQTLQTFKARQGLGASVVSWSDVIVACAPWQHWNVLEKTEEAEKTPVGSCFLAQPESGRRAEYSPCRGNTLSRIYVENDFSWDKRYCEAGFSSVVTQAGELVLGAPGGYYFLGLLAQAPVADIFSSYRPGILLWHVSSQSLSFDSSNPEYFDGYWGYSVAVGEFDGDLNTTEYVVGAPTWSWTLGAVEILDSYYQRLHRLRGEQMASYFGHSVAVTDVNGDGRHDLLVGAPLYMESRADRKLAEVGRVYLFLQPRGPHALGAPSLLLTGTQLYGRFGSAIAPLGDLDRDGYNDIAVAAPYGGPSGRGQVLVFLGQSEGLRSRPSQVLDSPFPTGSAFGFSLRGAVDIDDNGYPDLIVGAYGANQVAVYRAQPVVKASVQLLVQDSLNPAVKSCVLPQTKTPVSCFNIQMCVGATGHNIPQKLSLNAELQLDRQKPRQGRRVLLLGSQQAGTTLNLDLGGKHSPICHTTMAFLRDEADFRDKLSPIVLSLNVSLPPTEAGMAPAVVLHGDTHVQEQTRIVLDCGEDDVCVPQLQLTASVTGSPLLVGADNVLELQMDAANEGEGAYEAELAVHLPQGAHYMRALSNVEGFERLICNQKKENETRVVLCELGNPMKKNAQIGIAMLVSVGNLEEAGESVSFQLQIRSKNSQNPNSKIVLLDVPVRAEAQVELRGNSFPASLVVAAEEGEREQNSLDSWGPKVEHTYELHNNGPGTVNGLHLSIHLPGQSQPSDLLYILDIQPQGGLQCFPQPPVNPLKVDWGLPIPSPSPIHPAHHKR
T1 sequence (P08514 891-1039 limits assumed): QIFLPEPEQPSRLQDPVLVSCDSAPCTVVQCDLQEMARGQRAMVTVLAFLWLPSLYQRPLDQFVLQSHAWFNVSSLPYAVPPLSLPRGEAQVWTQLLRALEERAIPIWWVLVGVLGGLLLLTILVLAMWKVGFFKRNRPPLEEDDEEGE

Row | SMILES | IC50 [1] [nM] | IC50 [2] [nM] | IC50 [3] [nM] | IC50 [4] [nM] | IC50 [5] [nM] | IC50 [6] [nM] | IC50 [7] [nM]
1 | CCOC(=O)COC1CCN(C(=O)[C@H](C)NC(=O)c2ccc(C(=N)NO)cc2)CC1 [((S)-1-{2-[4-(N-Hydroxycarbamimidoyl)-benzoylamino]-propionyl}-piperidin-4-yloxy)-acetic acid ethyl ester] | 147 | 182 | – | 51 | – | – | 72
2 | CCOC(=O)CCNC(=O)N[C@H]1CCN(c2ccc(C(=N)N)cc2)C1=O [SC-57099B] | 166 | 362 | – | 68 | – | – | 137

More lines, now with the values ahead:

Row | IC50 [1] [nM] | IC50 [2] [nM] | IC50 [3] [nM] | IC50 [4] [nM] | IC50 [5] [nM] | IC50 [6] [nM] | IC50 [7] [nM] | SMILES
3 | 120 | 365 | 110 | 53 | – | – | – | N=C(N)c1ccc(N2CCC3(CCN(C(=O)NCCC(=O)O)CC3)C2=O)cc1 [3-{[2-(4-Carbamimidoyl-phenyl)-1-oxo-2,8-diaza-spiro[4.5]decane-8-carbonyl]-amino}-propionic acid]
4 | 123 | 368 | – | 54 | 175 | 464 | 168 | N=C(N)c1ccc(N2CCC3(CCN(C(=O)CCCC(=O)O)CC3)C2=O)cc1 [5-[2-(4-Carbamimidoyl-phenyl)-1-oxo-2,8-diaza-spiro[4.5]dec-8-yl]-5-oxo-pentanoic acid]
5 | 273 | 691 | 260 | 108 | 393 | 812 | – | N=C(N)c1ccc(N2CCC3(CCN(C(=O)COCC(=O)O)CC3)C2=O)cc1 [{2-[2-(4-Carbamimidoyl-phenyl)-1-oxo-2,8-diaza-spiro[4.5]dec-8-yl]-2-oxo-ethoxy}-acetic acid]
